# Literature values as cited in patent publication US20040202693A1, “Pharmaceutical compositions releasing their active agents from a buccal or sublingual location to overcome an absorption window problem” (priority 2003, published 2004).
# Where two headings read alike, the source gives them in different places.
# What was measured:
# [1] = oral administration in conventional dosage forms, upper portion of the gastrointestinal tract
absorption [1],Structure (SMILES),bioavailability (after oral administration),absorption (after rectal administration),bioavailability (enteric-coated formulation)
rapidly and almost completely absorbed,C[C@H]1c2cccc(O)c2C(=O)C2=C(O)[C@]3(O)C(=O)C(C(N)=O)=C(O)[C@@H](N(C)C)[C@@H]3[C@@H](O)[C@@H]21 [Doxycycline],,,
,O=C(O[C@H]1C[C@H]2CC[C@@H](C1)[N+]21CCCC1)C(O)(c1ccccc1)c1ccccc1 [Trospium chloride],approximately 10%,almost no absorption at all,significant decrease of bioavailability
